According to US20140114067A1, “BENZIMIDAZOLE DERIVATIVES AS MITOCHONDRIAL FUNCTION MODULATORS” (KOREA INSTITUTE OF SCIENCE AND TECHNOLOGY, priority 2012, published 2014):

Assays:
HT-22 cells [1] = assay: Improvement in mitochondrial membrane potential dropped by amyloid beta (JC-1 dye); format: cell-based; conditions: compound 5 μM, amyloid beta 5 μM, 3 hours, JC-1 green:red ratio, amyloid beta damage = 0%, normal = 100%
Method: (§1) Meanwhile, the compound represented by Formula 1 according to the present invention is evaluated through a test to determine recovery of mitochondrial functions damaged by amyloid beta, as described in the following Test Example. After the test, the results are shown in terms of the percentages of mitochondrial function disorder caused by amyloid beta. The degree of mitochondrial function disorder caused by amyloid beta is taken as 0% and the normal condition in the absence of amyloid beta is shown as 100%.
To a transparent 96-well plate, HT-22 cells are inoculated in a number of 30,000 per well one day before the test. On the next day, JC-1 dye (Stratagen, USA) is diluted with Opti-MEM containing no phenol red to a concentration of 7.5 μM, and the resultant dilution is used to treat the cells for 1 hour and 15 minutes. The dyed cells are washed twice with phosphate buffer solution (PBS), followed by treatment with each compound to a final concentration of 5 μM per well. Then, the cells are cultured at 37° C. for 10 minutes. Particularly, for each drug, two wells are treated with amyloid beta (5 μM) and the other two wells are treated with the vehicle control (5 μM DMSO). Then, the cells are cultured at 37° C. for 3 hours. The fluorescence intensity of each well is read by using a fluorescence plate reader at 485/535 nm (green/J-monomer) and 560/595 nm (red/J-aggregate). Then, the ratio of green:red is calculated and the results are normalized by taking the change of the ratio between addition of amyloid beta and no-addition of amyloid beta in the vehicle control non-treated with drugs as 100%.

HT-22 cells [2] = assay: Recovery of ATP production capability reduced by amyloid beta (luciferin/luciferase); format: cell-based; conditions: compound 5 μM, amyloid beta 5 μM, 7 hours, amyloid beta vehicle control without drug = 0%
Method: as §1
To a transparent 96-well plate, HT-22 cells are inoculated in a number of 10,000 per well one day before the test, followed by treatment with each compound to a final concentration of 5 μM per well. The cells are cultured at 37° C. for 10 minutes. Particularly, for each drug, two wells are treated with amyloid beta (5 μM) and the other two wells are treated with the vehicle control (5 μM DMSO). After the treatment, the cells are cultured at 37° C. for 7 hours. The cells treated with each drug are washed twice with PBS, lysed with Triton X-100 (1% in TSBT buffer) and agitated at room temperature for 5 minutes. […] is used to determine the protein amount of each well, and the same amount of protein taken from each well is added to a white 96-well plate. Then, […] (Molecular Probe, USA) for ATP determination containing d-luciferin and luciferase is added thereto and emission peaks generated from each of the wells are determined. After the determination, the peaks are normalized by taking the vehicle control to which amyloid beta is added without treatment with any drug as 0%.

| SMILES | Improvement in Membrane Potential (%) (5 μM) (HT-22 cells [1]) | ATP Production Capability Recovery (%) (5 μM) (HT-22 cells [2]) |
| --- | --- | --- |
| Cc1ccc(C(C)C)cc1NC(=O)Cn1c(-c2cc(Cl)ccc2Cl)nc2ccc(Cl)cc21 [Compound 25, 2-(6-chloro-2-(2,5-dichlorophenyl)-1H-benzo[d]imidazol-1-yl)-N-(5-isopropyl-2-methylphenyl)acetamide] | 87 | 69 |
| CCN1CCCC1CNC(=O)c1ccc(Cn2c(Cc3c(Cl)cccc3Cl)nc3ccccc32)cc1 (centres unmarked) [Compound 32, 4-((2-(2,6-dichlorobenzyl)-1H-benzo[d]imidazol-1-yl)methyl)-N-((1-ethylpyrrolidin-2-yl)methyl)benzamide] | 90 | 51 |
| CN(C)CCCNC(=O)c1ccc(Cn2c(Cc3c(Cl)cccc3Cl)nc3ccccc32)cc1 [Compound 34, 4-((2-(2,6-dichlorobenzyl)-1H-benzo[d]imidazol-1-yl)methyl)-N-(3-(dimethylamino)propyl)benzamide] | 82 | 85 |
| O=C(NCCCN1CCCCC1)c1ccc(Cn2c(Cc3c(Cl)cccc3Cl)nc3ccccc32)cc1 [Compound 37, 4-((2-(2,6-dichlorobenzyl)-1H-benzo[d]imidazol-1-yl)methyl)-N-(3-(piperidin-1-yl)propyl)benzamide] | 90 | 64 |
